Measured values from the NIST ThermoML archive (doi:10.1021/je800145h).

Conditions: Liquid

CC(C)O [propan-2-ol]
Conditions | vapor or sublimation pressure [kPa]
333.94 K | 40
340.18 K | 53.33
345.25 K | 66.66
349.55 K | 79.99
353.3 K | 93.32
354.67 K | 98.66

CCC(C)O (stereo unspecified) [butan-2-ol]
Conditions | vapor or sublimation pressure [kPa]
349.73 K | 40
356.36 K | 53.33
361.77 K | 66.66
366.36 K | 79.99
370.38 K | 93.32
371.86 K | 98.66

CC(C)(C)O [2-methylpropan-2-ol]
Conditions | vapor or sublimation pressure [kPa]
333.9 K | 40
340.13 K | 53.33
345.21 K | 66.66
349.53 K | 79.99
353.32 K | 93.32
354.61 K | 98.66

C1CCOCC1 [tetrahydropyran]
Conditions | mass density [kg/m3]
298.15 K, 101.33 kPa, Vibrating tube method | 879

Conditions | vapor or sublimation pressure [kPa]
332.98 K | 40
341.09 K | 53.33
347.72 K | 66.66
353.38 K | 79.99
358.37 K | 93.32
360.22 K | 98.66
361.23 K | 101.32

CCCCO [butan-1-ol]
Conditions | vapor or sublimation pressure [kPa]
366.76 K | 40
373.74 K | 53.33
379.43 K | 66.66
384.26 K | 79.99
388.49 K | 93.32
390.04 K | 98.66

CC(C)CO [2-methyl-1-propanol]
Conditions | vapor or sublimation pressure [kPa]
357.45 K | 40
364.17 K | 53.33
369.67 K | 66.66
374.35 K | 79.99
378.45 K | 93.32
379.96 K | 98.66

CCCO [propan-1-ol]
Conditions | vapor or sublimation pressure [kPa]
347.55 K | 40
354.18 K | 53.33
359.56 K | 66.66
364.11 K | 79.99
368.08 K | 93.32
369.55 K | 98.66

CO [methanol]
Conditions | vapor or sublimation pressure [kPa]
315.75 K | 40
322.15 K | 53.33
327.34 K | 66.66
331.73 K | 79.99
335.57 K | 93.32
336.98 K | 98.66

CCO [ethanol]
Conditions | vapor or sublimation pressure [kPa]
329.62 K | 40
335.99 K | 53.33
341.2 K | 66.66
345.6 K | 79.99
349.42 K | 93.32
350.82 K | 98.66
